The values below come from patent publication US20250368666A1, “INDAZOLE COMPOUNDS” (TYRA BIOSCIENCES, INC., priority 2022, published 2025).

The target of one assay is T1, FGFR3 (Homo sapiens, UniProt P22607).
T1 construct: made in house; host or cells: E. coli (BL21-derived), T7 phage
The experiment in a line: Kinase binding assay (kinase-tagged T7 phage, affinity beads, qPCR), Kd. Conditions: read-out: FGFR3 (Kd nM). The method, then: (§1) Kinase-tagged T7 phage strains were prepared in an E. coli host derived from the BL21 strain. E. coli were grown to log-phase and infected with T7 phage and incubated with shaking at 32° C. until lysis. The lysates were centrifuged and filtered to remove cell debris. Streptavidin-coated magnetic beads were treated with biotinylated small molecule ligands for 30 minutes at room temperature to generate affinity resins for kinase assays. The liganded beads were blocked with excess biotin and washed with blocking buffer SeaBlock (Pierce), 1% BSA, 0.05% Tween 20, 1 mM DTT to remove unbound ligand and to reduce non-specific binding.
(§2) Test compounds were prepared as 111× stocks in 100% DMSO. Kds were determined using an 11-point 3-fold compound dilution series with three DMSO control points. […] The compounds were then diluted directly into the assays such that the final concentration of DMSO was 0.9%. All reactions performed in polypropylene 384-well plate. Each was a final volume of 0.02 ml. […] The kinase concentration in the eluates was measured by qPCR.
(§3) Binding constants were calculated with a standard dose-response curve using the Hill equation: […]
(§4) The Hill Slope was set to −1. Curves were fitted using a non-linear least square fit with the Levenberg-Marquardt algorithm.
(In general: Quantitative PCR measures a nucleic acid by following its amplification.)

For a further assay, the target named is T2, FGFR1 (Homo sapiens, UniProt P11362).
T2 construct: made in house; host or cells: E. coli (BL21-derived), T7 phage
T2 sequence (P11362 22-822): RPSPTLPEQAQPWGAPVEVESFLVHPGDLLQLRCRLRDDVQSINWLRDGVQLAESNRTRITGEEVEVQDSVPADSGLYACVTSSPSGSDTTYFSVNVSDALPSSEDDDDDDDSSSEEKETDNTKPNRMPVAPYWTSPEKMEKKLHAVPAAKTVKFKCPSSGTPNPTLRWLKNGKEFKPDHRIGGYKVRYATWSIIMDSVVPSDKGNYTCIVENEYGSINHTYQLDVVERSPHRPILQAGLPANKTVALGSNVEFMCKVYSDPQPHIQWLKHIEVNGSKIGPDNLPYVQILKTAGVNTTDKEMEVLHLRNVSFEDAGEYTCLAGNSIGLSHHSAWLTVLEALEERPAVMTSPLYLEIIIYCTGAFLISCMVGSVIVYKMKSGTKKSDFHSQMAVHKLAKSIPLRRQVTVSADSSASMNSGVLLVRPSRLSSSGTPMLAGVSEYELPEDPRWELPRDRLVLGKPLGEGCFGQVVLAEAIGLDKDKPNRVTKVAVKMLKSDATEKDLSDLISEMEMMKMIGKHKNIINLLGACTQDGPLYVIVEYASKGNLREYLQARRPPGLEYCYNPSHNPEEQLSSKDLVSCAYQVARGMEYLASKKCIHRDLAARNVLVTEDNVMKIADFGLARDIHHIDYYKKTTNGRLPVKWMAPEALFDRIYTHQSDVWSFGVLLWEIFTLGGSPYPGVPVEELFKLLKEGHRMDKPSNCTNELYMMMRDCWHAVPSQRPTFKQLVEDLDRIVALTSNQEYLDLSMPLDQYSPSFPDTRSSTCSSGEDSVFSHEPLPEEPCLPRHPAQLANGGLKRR
Described as above. As to conditions: read-out: FGFR1 (Kd nM). The method, then:
as §1, §2, §3, §4

[1] abbreviates: kinase binding assay, 11-point 3-fold dilution series.

Counter-ions that a name gives are not always drawn. Like-named read-outs stand apart in the source and are kept apart here.

T1 sequence (P22607 23-806): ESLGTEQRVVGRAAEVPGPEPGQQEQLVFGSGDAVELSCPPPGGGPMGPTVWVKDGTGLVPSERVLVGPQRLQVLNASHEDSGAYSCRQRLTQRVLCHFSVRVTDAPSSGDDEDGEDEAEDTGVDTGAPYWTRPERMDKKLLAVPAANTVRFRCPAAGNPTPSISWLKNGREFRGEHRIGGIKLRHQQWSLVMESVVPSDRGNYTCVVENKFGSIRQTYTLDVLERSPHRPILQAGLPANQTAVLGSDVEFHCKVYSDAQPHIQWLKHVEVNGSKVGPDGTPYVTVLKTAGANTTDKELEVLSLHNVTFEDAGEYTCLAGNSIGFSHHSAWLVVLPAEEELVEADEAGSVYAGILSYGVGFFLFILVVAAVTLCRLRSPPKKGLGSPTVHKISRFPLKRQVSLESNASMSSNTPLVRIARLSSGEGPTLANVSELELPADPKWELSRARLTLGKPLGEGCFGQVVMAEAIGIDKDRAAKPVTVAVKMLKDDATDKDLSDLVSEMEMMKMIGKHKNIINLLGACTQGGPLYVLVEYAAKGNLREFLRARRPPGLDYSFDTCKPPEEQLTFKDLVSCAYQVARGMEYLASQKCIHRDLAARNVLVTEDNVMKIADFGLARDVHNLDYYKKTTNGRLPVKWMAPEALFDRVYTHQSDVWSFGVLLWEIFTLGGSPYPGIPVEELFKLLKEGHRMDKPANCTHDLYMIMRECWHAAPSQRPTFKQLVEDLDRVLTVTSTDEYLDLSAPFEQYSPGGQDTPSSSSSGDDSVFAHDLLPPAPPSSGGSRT

With `COc1cc2[nH]nc(-c3ccc(N4CCC(C)(N)C4)nc3)c2cc1O[C@H](C)c1c(Cl)cncc1Cl` (stereo in doubt) [Example 380, (R)-1-(5-(5-((R)-1-(3,5-dichloropyridin-4-yl)ethoxy)-6-methoxy-1H-indazol-3-yl)pyridin-2-yl)-3-methylpyrrolidin-3-amine], the Kd on FGFR3 and on FGFR1 was 1 to 50 nM each time.
As for `C[C@@H](Oc1ccc2[nH]nc(-c3ccc(N4CCC(N)(c5ccnn5C)C4)nn3)c2c1)c1c(Cl)cncc1Cl` (stereo in doubt) [Example 416, (R)-1-(6-(5-((R)-1-(3,5-dichloropyridin-4-yl)ethoxy)-1H-indazol-3-yl)pyridazin-3-yl)-3-(1-methyl-1H-pyrazol-5-yl)pyrrolidin-3-amine], the Kd on FGFR3 (setting [1]) and on FGFR1 (setting [1]) was 1 to 50 nM in each case.
Consider `CCNC1(C)CN(c2ncc(-c3n[nH]c4ccc(O[C@H](C)c5c(Cl)cncc5Cl)cc34)cn2)C1` [Example 238, (R)-1-(5-(5-(1-(3,5-dichloropyridin-4-yl)ethoxy)-1H-indazol-3-yl)pyrimidin-2-yl)-N-ethyl-3-methylazetidin-3-amine], for which the Kd at FGFR3 and on FGFR1 was 1 to 50 nM in each case.
As to `C=CCNC1(C)CN(c2ccc(-c3n[nH]c4ccc(O[C@H](C)c5c(Cl)cncc5Cl)cc34)c(F)n2)C1` [Example 240, (R)-N-ally1-1-(5-(5-(1-(3,5-dichloropyridin-4-yl)ethoxy)-1H-indazol-3-yl)-6-fluoropyridin-2-yl)-3-methylazetidin-3-amine], the Kd at FGFR3 and at FGFR1 was 1 to 50 nM throughout.
For the compound `C[C@@H](Oc1ccc2[nH]nc(-c3cnc(N4CC(CC#N)(N(C)C)C4)c(F)c3)c2c1)c1c(Cl)cncc1Cl` [Example 252, (R)-2-(1-(5-(5-(1-(3,5-dichloropyridin-4-yl)ethoxy)-1H-indazol-3-yl)-3-fluoropyridin-2-yl)-3-(dimethyl-amino)azeti-din-3-yl)acetonitrile], the Kd at FGFR3 and at FGFR1 was 1 to 50 nM throughout.
Regarding `CC(C)CNC1(CC#N)CN(c2ncc(-c3n[nH]c4ccc(O[C@H](C)c5c(Cl)cncc5Cl)cc34)cc2F)C1` [Example 253, (R)-2-(1-(5-(5-(1-(3,5-Dichloropyridin-4-yl)ethoxy)-1H-indazol-3-yl)-3-fluoropyridin-2-yl)-3-(iso-butylamino)azeti-din-3-yl)acetonitrile dihydrochloride], the figures for the Kd at FGFR3 and at FGFR1 were 1 to 50 nM and 50 to 300 nM, respectively.
In the same order, the values of `Cc1ncc(Cl)c([C@@H](C)Oc2ccc3[nH]nc(-c4cnc(N5CC(CC#N)(NCC(C)C)C5)c(F)c4)c3c2)c1Cl` [Example 254, (R)-2-(1-(5-(5-(1-(3,5-Dichloro-2-methylpyridin-4-yl)ethoxy)-1H-indazol-3-yl)-3-fluoropyridin-2-yl)-3-(iso-butylamino)azeti-din-3-yl)acetonitrile] are 1 to 50 nM and 50 to 300 nM.
As to `CC(C)N(C)C1(CC#N)CN(c2ncc(-c3n[nH]c4ccc(O[C@H](C)c5c(Cl)cncc5Cl)cc34)cc2F)C1` [Example 257, (R)-2-(1-(5-(5-(1-(3,5-dichloropyridin-4-yl)ethoxy)-1H-indazol-3-yl)-3-fluoropyridin-2-yl)-3-(isopropyl(methyl)a-mino)azetidin-3-yl)acetonitrile], the Kd on FGFR3 was 1 to 50 nM; on FGFR1 it was 50 to 300 nM.
In the same order, the values of `C[C@@H](Oc1ccc2[nH]nc(-c3cnc(N4CC(N)(C5CCOCC5)C4)c(F)c3)c2c1)c1c(Cl)cncc1Cl` [Example 263, (R)-1-(5-(5-(1-(3,5-dichloropyridin-4-yl)ethoxy)-1H-indazol-3-yl)-3-fluoropyridin-2-yl)-3-(tetrahydro-2H-pyran-4-yl)azetidin-3-amine] are 1 to 50 nM and 1 to 50 nM.
In the same order, the values of `CCCC1(N)CN(c2ncc(-c3n[nH]c4ccc(O[C@H](C)c5c(Cl)cncc5Cl)cc34)cc2F)C1` [Example 265, (R)-1-(5-(5-(1-(3,5-dichloropyridin-4-yl)ethoxy)-1H-indazol-3-yl)-3-fluoropyridin-2-yl)-3-propylazetidin-3-amine] are 1 to 50 nM and 1 to 50 nM.
In the same order, the values of `C[C@@H](Oc1ccc2[nH]nc(-c3cnc(N4CC(C)(NCCN5CCCC5)C4)c(F)c3)c2c1)c1c(Cl)cncc1Cl` [Example 268, (R)-1-(5-(5-(1-(3,5-dichloropyridin-4-yl)ethoxy)-1H-indazol-3-yl)-3-fluoropyridin-2-yl)-3-methyl-N-(2-(pyrrolidin-1-yl)ethyl)azetidin-3-amine] are 1 to 50 nM and 1 to 50 nM.
For `C[C@@H](Oc1ccc2[nH]nc(-c3ccc(N4CC(N)(CC(C)(C)O)C4)nn3)c2c1)c1c(Cl)cncc1Cl` [Example 275, (R)-1-(3-amino-1-(6-(5-(1-(3,5-dichloropyridin-4-yl)ethoxy)-1H-indazol-3-yl)pyridazin-3-yl)azetidin-3-yl)-2-methylpropan-2-ol], the Kd at FGFR3 and on FGFR1 was 1 to 50 nM throughout.
In the case of `C[C@@H](Oc1ccc2[nH]nc(-c3ccc(N4CC(N)(CC(C)(C)O)C4)nc3)c2c1)c1c(Cl)cncc1Cl` [Example 278, (R)-1-(3-amino-1-(5-(5-(1-(3,5-dichloropyridin-4-yl)ethoxy)-1H-indazol-3-yl)pyridin-2-yl)azetidin-3-yl)-2-methylpropan-2-ol], the Kd on FGFR3 and at FGFR1 was 1 to 50 nM throughout.
On to `C[C@@H](Oc1ccc2[nH]nc(-c3ccc(N4CC(N)(CCO)C4)nc3)c2c1)c1c(Cl)cncc1Cl` [Example 279, (R)-2-(3-amino-1-(5-(5-(1-(3,5-dichloropyridin-4-yl)ethoxy)-1H-indazol-3-yl)pyridin-2-yl)azetidin-3-yl)ethanol], for which the Kd on FGFR3 and at FGFR1 was 1 to 50 nM in each case.
Consider `CCC(C)C1(N)CN(c2ncc(-c3n[nH]c4ccc(O[C@H](C)c5c(Cl)cncc5Cl)cc34)cc2F)C1` (stereo partly drawn) [Example 280, 1-[5-[5-[(1R)-1-(3,5-dichloro-4-pyridyl)ethoxy]-1H-indazol-3-yl]-3-fluoro-2-pyridyl]-3-sec-butyl-azetidin-3-amine], for which the Kd at FGFR3 and on FGFR1 was 1 to 50 nM each time.
With `C[C@@H](Oc1ccc2[nH]nc(-c3ccc(N4CC(C)(N)C4)nn3)c2c1)c1c(Cl)cncc1Cl` [Example 286], the Kd on FGFR3 and on FGFR1 was 1 to 50 nM each time.
`CC(C)OC(=O)C1(N)CN(c2ncc(-c3n[nH]c4ccc(O[C@H](C)c5c(Cl)cncc5Cl)cc34)cc2F)C1` [Example 287, (R)-isopropyl 3-amino-1-(5-(5-(1-(3,5-dichloropyridin-4-yl)ethoxy)-1H-indazol-3-yl)-3-fluoropyridin-2-yl)azetidine-3-carboxylate]: the Kd on FGFR3 and at FGFR1 was 1 to 50 nM each time.
Take `C[C@@H](Oc1ccc2[nH]nc(-c3cnc(N4CC(N)(CC5CCCO5)C4)c(F)c3)c2c1)c1c(Cl)cncc1Cl` (stereo partly drawn) [Example 288, 1-(5-(5-((R)-1-(3,5-dichloropyridin-4-yl)ethoxy)-1H-indazol-3-yl)-3-fluoropyridin-2-yl)-3-((tetrahydrofuran-2-yl)methyl)azetidin-3-amine]: the Kd at FGFR3 and at FGFR1 was 1 to 50 nM each time.
For the compound `C[C@@H](Oc1ccc2[nH]nc(-c3ccc(N4CC(N)(CCF)C4)nn3)c2c1)c1c(Cl)cncc1Cl` [Example 292, (R)-1-(6-(5-(1-(3,5-dichloropyridin-4-yl)ethoxy)-1H-indazol-3-yl)pyridazin-3-yl)-3-(2-fluoroethyl)azetidin-3-amine], the Kd at FGFR3 and at FGFR1 was 1 to 50 nM each time.
Consider `C[C@@H](Oc1ccc2[nH]nc(-c3cnc(N4CC(N)(C(=O)N(C)C)C4)c(F)c3)c2c1)c1c(Cl)cncc1Cl` [Example 293, (R)-3-amino-1-(5-(5-(1-(3,5-dichloropyridin-4-yl)ethoxy)-1H-indazol-3-yl)-3-fluoropyridin-2-yl)-N,N-dimethylazetidine-3-carboxamide], for which the Kd on FGFR3 and on FGFR1 was 1 to 50 nM throughout.
For `CNC(=O)C1(N)CN(c2ncc(-c3n[nH]c4ccc(O[C@H](C)c5c(Cl)cncc5Cl)cc34)cc2F)C1` [Example 296, (R)-3-amino-1-(5-(5-(1-(3,5-dichloropyridin-4-yl)ethoxy)-1H-indazol-3-yl)-3-fluoropyridin-2-yl)-N-methylazetidine-3-carboxamide], the Kd at FGFR3 and at FGFR1 was 1 to 50 nM throughout.
Regarding `COc1cc2[nH]nc(-c3cnc(N4CC(C)(N)C4)nc3)c2cc1O[C@H](C)c1c(Cl)cncc1Cl` [Example 302, (R)-1-(5-(5-(1-(3,5-dichloropyridin-4-yl)ethoxy)-6-methoxy-1H-indazol-3-yl)pyrimidin-2-yl)-3-methylazetidin-3-amine], the Kd at FGFR3 and at FGFR1 was 1 to 50 nM throughout.
For `C[C@@H](Oc1ccc2[nH]nc(-c3cnc(N4CC[C@@](C)(N)C4)c(F)c3)c2c1)c1c(Cl)cncc1Cl` [Example 408, (R)-1-(5-(5-((R)-1-(3,5-dichloropyridin-4-yl)ethoxy)-1H-indazol-3-yl)-3-fluoropyridin-2-yl)-3-methylpyrrolidin-3-amine], the Kd at FGFR1 (setting [1]) fell in the range of 1 to 50 nM.

The term Kd denotes the constant that tells how readily two partners part at equilibrium.
